For orientation: Vd means the apparent volume that relates the amount in the body to the concentration in plasma or blood. As a reminder, the Cmax is the maximum level reached in the sampled fluid or tissue. For orientation: bioavailability means dose-corrected exposure relative to a reference, in per cent. The term AUC denotes concentration integrated over time.

The values that follow come from US20240398806A1, “Compositions For and Methods of Treating and/or Preventing Pain” (Duke University, priority 2021, published 2024).

One data set has as its target NTSR1 (Homo sapiens, UniProt P30989). The experiment in a line: Cellular assay of β-arrestin-2 translocation in cells expressing NTSR1. The class given is cell-based. Also noted: expressed in transfected cells; host or cells: HEK293T cell membranes. On the procedure: First, using cellular assays, whether IND candidates such as SBI-810 are similar or better than SBI-553 as β-arrestin biased agonist at NTSR1. is assessed. The chemical entities used in this work were synthesized and validated. However, routine validation of the profile of these compounds is performed routinely using both cellular and in vivo assays. For example, HEK293 cells that express either the NTSR1 or NTSR2 are used to assess the functional profile of the various chemical probes. In addition, a series of genetically engineered mouse lines are used to provide an in vivo validation of novel chemical entities for their abilities to module behaviors in these animals.
Fourth, cellular assays are used to establish that IND ready analogs like SBI-810 are still selective for the NTSR1 rather than NTSR2. The specificity of the lead compounds toward NTSR1. NTSR2. and β-arrestin-2 are tested in respective cellular assays. More specifically, cells expressing either NTSR1 or NTSR2 are used to assess the function of various compound. […] This translocation is not observed in cells expressing NTSR2.
Fourth, genetically engineered mice are used to assess the effects and mechanisms of novel ligands. The specificity of the lead compounds toward NTSR1, NTSR2, and β-arrestin-2 dependent signaling is examined. […]

The test system of the next data set is lamina IIo neurons. Set-up: dose or concentration left out as unconfirmed. Conditions: slices of PTX-treated mice.
A further data set can be described thus: Pharmacokinetics in rat. The class given is in vivo.

Sequence of NTSR1 (P30989 whole entry): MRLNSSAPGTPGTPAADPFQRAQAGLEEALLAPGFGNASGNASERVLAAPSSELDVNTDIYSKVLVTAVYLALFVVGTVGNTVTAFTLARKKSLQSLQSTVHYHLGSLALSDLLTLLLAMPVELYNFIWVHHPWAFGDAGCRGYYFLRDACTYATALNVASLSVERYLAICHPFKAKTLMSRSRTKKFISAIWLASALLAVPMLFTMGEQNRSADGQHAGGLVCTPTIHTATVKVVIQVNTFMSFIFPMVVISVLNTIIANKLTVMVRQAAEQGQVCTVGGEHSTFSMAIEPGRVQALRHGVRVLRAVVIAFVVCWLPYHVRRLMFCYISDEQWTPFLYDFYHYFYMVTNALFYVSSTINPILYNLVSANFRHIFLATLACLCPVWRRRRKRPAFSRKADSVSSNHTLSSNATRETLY

For the compound `COc1ccccc1C1CCN(c2nc(C3(F)CC3)nc3ccc(N(C)CCO)cc23)CC1` [SBI-553], at NTSR1, the “Translocation of β-arrestin-2 to intracellular compartments” value is reported as “demonstrate translocation of β-arrestin-2”. Further, the “Excitatory synaptic transmission (sEPSCs) in lamina IIo neurons” value in the data set with lamina IIo neurons is on record as “significantly suppressed”. In “Pharmacokinetics in rat” (5 mpk iv (printed tv)), this compound displayed a CIp of 81 mL/min/kg and a Vd of 7.02 L/kg. In “Pharmacokinetics in rat” (30 mpk po (pa [sic])), this compound gave a Cmax of 3482 ng/mL and a T2/2 of 2.23 h. Also, the Kp at 1 h in the data set “Pharmacokinetics in rat” (brain, 30 mg/kg, 30 mpk po (pa [sic]), 1 h, read-out: brain:plasma @ 1 h) worked out at 0.98. Moreover, the bioavailability in “Pharmacokinetics in rat” (plasma, 30 mg/kg, 5 mpk iv and 30 mpk po) amounted to 48%. This compound also gave an AUC in “Pharmacokinetics in rat” (route not marked) of 2693 ng·h/mL.
